What was measured:
Assay type in all cases: in vivo
Colletotrichum spp. = assay: Antifungal effect against Colletotrichum infection on wounded skin of pepper fruits (Colby synergy)
Excerpt: wherein X and Y are the observed antifungal activities (in %) of the individual active ingredients x and y, respectively. If the observed antifungal activity (O in %) of the combination exceeds the expected antifungal activity (E in %) of the combination and the synergy factor O/E is thus >1.0, the combined application of the active ingredients leads to a synergistic antifungal effect. […]
For the treatment, 5 wounds per pepper side were done as previously described. In addition, one wound was done as negative control. Depending on the number of sides of the pepper, 3 to 4 treatments were done per paprika. Per wound 10 μl of treatment was placed on the wound. The treatments were let to dry in a down flow cabinet for about 30 minutes. After drying 5 μl spore suspension at a concentration of 10^7 spores per ml were placed on the wounds. The fungus was isolated from Colletotrichum-infected plant material and identified using techniques known to the person skilled in the art. The pepper were placed as described previously in a transparent container, with the difference that the containers were then placed in a transparent plastic zipper bag. The bags with peppers were placed at room temperature and in the dark for two days. After that the size of the lesions were measured. Assessment of the infection area was 4 days after inoculation. Experiment was performed in 5-fold.
(§1) The fungus was isolated from Colletotrichum-infected plant material and identified using techniques known to the person skilled in the art. Assessment of the infection area was performed 5 days after inoculation. Experiment was performed in 5-fold.
as §1, with “The active ingredient imidacloprid was formulated as described in Table 2. Imidacloprid belonging to IRAC Group 4. The” for “The”
The fungus was isolated from Colletotrichum-infected plant material and identified using techniques known to the person skilled in the art. Assessment of the efficacy was 5 days after inoculation. Experiment was performed in 5-fold.
The fungus was isolated from Colletotrichum-infected plant material and identified using techniques known to the person skilled in the art. Assessment of the infection area was performed 6 days after inoculation. Experiment was performed in 5-fold.
The fungus was isolated from Colletotrichum-infected plant material and identified using techniques known to the person skilled in the art. Assessment of the infection area was performed 4 days after inoculation. Experiment was performed in 5-fold.

Botrytis cinerea = assay: Antifungal effect against Botrytis cinerea infection on wounded peel of banana fruits (Colby synergy)
Excerpt: (§2) wherein X and Y are the observed antifungal activities (in %) of the individual active ingredients x and y, respectively. If the observed antifungal activity (O in %) of the combination exceeds the expected antifungal activity (E in %) of the combination and the synergy factor O/E is thus >1.0, the combined application of the active ingredients leads to a synergistic antifungal effect.
(§3) Application: The broad bean pods were washed under tap water, and were subsequently surface sterilized by placing them in a 0.1% sodium hypochlorite solution for 5 minutes. The pods were then rinsed with tap water and dried. Transparent plastic containers were prepared by placing a piece of absorbing paper in the container and adding 25 ml of water, one container per treatment was used. The pods were cut in two, and two halve pods were incubated per box. The skin of broad bean pods was damaged with a needle, ø 2 mm and to a depth of about 3 mm into the fruit, with—depending on the size of the pod—2 to 4 wounds per half pod. In total, 6 wounds were incubated per treatment, of which 1 was used as a control. A volume of 20 microliter of a natamycin/insecticide composition, as presented herein above, was applied by pipette to each wound. The treatments were then left to air-dry. Once dried, a mycelium plug of Sclerotinia sclerotiorum was placed upside down on each wound, so that the mycelium was in direct contact with the wound. Per treatment 5 wounds were inoculated with the fungus, while the 6th and last wound was used as negative non-inoculated control. After inoculation, the containers were directly closed with a transparent plastic lid.
The infection area was measured 5 days after inoculation.
A few changes were made for the banana experiments: 5 wounds per banana were made, on each wound 40 microliter of treatments was pipetted. The treatments were then left to air-dry. Once dried, 2 microliter of a freshly prepared inoculum was pipetted on four of the wounds. The inoculum consists of […] potato dextrose broth (PDB) medium containing Botrytis cinerea spores at a concentration of 10^6 spores per ml. The fifth wound was used as negative non-inoculated control. Experiment was performed in 4-fold.
Assessment of the infection area was performed 3 days after inoculation. Experiment was performed in 4-fold.
Imidacloprid was formulated as described in Table 2. Assessment of the efficacy was 5 days after inoculation. Experiment was performed in 4-fold.

Sclerotinia sclerotiorum = assay: Antifungal effect against Sclerotinia sclerotiorum infection on wounded skin of broad bean pods (rot area, Colby synergy)
Excerpt: The Colby equation (Colby, 1967. Weeds 15:20-22) calculates the expected antifungal activity (E in %) of a combination comprising more than one active ingredients:
as §2
• 1) Control (without natamycin and lambda-cyhalothrin) • 2) Natamycin at a level of 15 ppm • 3) Lambda-cyhalothrin (in the product KARATE ZEON® of Syngenta) at a levels of 0.15 ppm, 0.6 ppm, 3 ppm and 15 ppm • 4) Natamycin at a level of 15 ppm combined with lambda-cyhalothrin at levels of 0.15 ppm, 0.6 ppm, 3 ppm or 15 ppm.
Used pathogen: Sclerotinia sclerotiorum.
as §3
All pods were kept at room temperature (20° C.). Wounds of the pods were checked after 30 h of incubation.
Replicates: All treatments for the broad bean pod experiment were performed on two individual pod halves resulting in 5 wounds per treatment, while a sixth wound served as control.
The experiments were performed as described in Example 1.
The experiments were performed as described in Example 1. Assessment of the infection area was 23 h after inoculation. Experiment was performed in 5-fold.
The experiments were performed as described in Example 1. Thiamethoxam belongs to IRAC Group 4. Assessment of the infection area was 31 hours after inoculation. Experiment was performed in 5-fold.
The experiments were performed as described in Example 1. The product SPECTRE® of company (Adama) containing the active ingredient chlorfenapyr belonging to IRAC Group 13 was tested. Assessment of the infection area was 23 hours after inoculation. Experiment was performed in 5-fold.

[1] = natamycin:fipronil 0:0.01 ppm, 6 days after inoculation, Table 19
[2] = natamycin:fipronil 0:0.04 ppm, 6 days after inoculation, Table 19
[3] = natamycin:fipronil 0:1 ppm, 6 days after inoculation, Table 19
[4] = natamycin-insecticide 0:0.01 ppm, 5 days after inoculation, Table 15
[5] = natamycin-insecticide 0:0.04 ppm, 5 days after inoculation, Table 15
[6] = natamycin-insecticide 0:1 ppm, 5 days after inoculation, Table 15
[7] = natamycin-insecticide 0:0.004 ppm, 3 days after inoculation, Table 14B
[8] = natamycin-insecticide 0:0.01 ppm, 3 days after inoculation, Table 14A
[9] = natamycin-insecticide 0:0.04 ppm, 3 days after inoculation, Table 14A
[10] = natamycin-insecticide 0:1 ppm, 3 days after inoculation, Table 14A
[11] = natamycin-insecticide 0-0.15 ppm, 23 hours after inoculation, Table 9
[12] = natamycin-insecticide 0-0.6 ppm, 23 hours after inoculation, Table 9
[13] = natamycin-insecticide 0-3 ppm, 23 hours after inoculation, Table 9
[14] = natamycin-insecticide 0-15 ppm, 23 hours after inoculation, Table 9
[15] = natamycin-insecticide 0-0.15 ppm, 23 h after inoculation, Table 7
[16] = natamycin-insecticide 0-0.6 ppm, 23 h after inoculation, Table 7
[17] = natamycin-insecticide 0-3 ppm, 23 h after inoculation, Table 7
[18] = natamycin-insecticide 0-15 ppm, 23 h after inoculation, Table 7
[19] = natamycin:abamectin 0:0.01 ppm, 4 days after inoculation, Table 20
[20] = natamycin:abamectin 0:0.04 ppm, 4 days after inoculation, Table 20
[21] = natamycin-insecticide 0:0.01 ppm, 5 days after inoculation, Table 17
[22] = natamycin-insecticide 0:0.04 ppm, 5 days after inoculation, Table 17
[23] = natamycin-insecticide 0:1 ppm, 5 days after inoculation, Table 17
[24] = natamycin-insecticide 0:0.01 ppm, 4 days after inoculation, Table 13
[25] = natamycin-insecticide 0:0.04 ppm, 4 days after inoculation, Table 13
[26] = natamycin-insecticide 0:1 ppm, 4 days after inoculation, Table 13
[27] = natamycin-insecticide 0-0.15 ppm, 31 hours after inoculation, Table 8
[28] = natamycin-insecticide 0-0.6 ppm, 31 hours after inoculation, Table 8
[29] = natamycin-insecticide 0-3 ppm, 31 hours after inoculation, Table 8
[30] = natamycin-insecticide 0-15 ppm, 31 hours after inoculation, Table 8
[31] = natamycin-insecticide 0:0.01 ppm, 5 days after inoculation, Table 16
[32] = natamycin-insecticide 0:0.04 ppm, 5 days after inoculation, Table 16
[33] = natamycin-insecticide 0:0.004 ppm, 5 days after inoculation, Table 18B
[34] = natamycin-insecticide 0:0.01 ppm, 5 days after inoculation, Table 18A
[35] = natamycin-insecticide 0:0.04 ppm, 5 days after inoculation, Table 18A
[36] = natamycin-insecticide 0:1 ppm, 5 days after inoculation, Table 18A

## N#Cc1nn(-c2c(Cl)cc(C(F)(F)F)cc2Cl)c(N)c1[S+]([O-])C(F)(F)F (racemic) [fipronil, (±)-5-amino-1-(2,6-dichloro-α,α,α-trifluoro-p-tolyl)-4-trifluoromethyl sulfinylpyrazole-3-carbonitrile]
Colletotrichum spp.; [1]
  Avg infected area: 88.2 mm^2
  Observed antifungal activity: −76.1%
Colletotrichum spp.; [2]
  Avg infected area: 76.8 mm^2
  Observed antifungal activity: −53.4%
Colletotrichum spp.; [3]
  Avg infected area: 80.4 mm^2
  Observed antifungal activity: −60.5%

## CC1(C)[C@H](C(=O)O[C@H](C#N)c2cccc(Oc3ccccc3)c2)[C@@H]1C=C(Cl)Cl [alpha-cypermethrin, [(S)-cyano-(3-phenoxyphenyl)methyl] (1R,3R)-3-(2,2-dichloroethenyl)-2,2-dimethylcyclopropane-1-carboxylate]
Colletotrichum spp.; [4]
  Avg infected area: 44.8 mm2
  Observed antifungal activity: −6.1%
Colletotrichum spp.; [5]
  Avg infected area: 22.5 mm2
  Observed antifungal activity: 46.7%
Colletotrichum spp.; [6]
  Avg infected area: 20.6 mm2
  Observed antifungal activity: 51.2%
Botrytis cinerea; [7]
  Avg infected area: 6.2 mm2
  Observed antifungal activity: 37.2%
Botrytis cinerea; [8]
  Avg infected area: 9.0 mm2
  Observed antifungal activity: 20.5%
Botrytis cinerea; [9]
  Avg infected area: 9.1 mm2
  Observed antifungal activity: 19.8%
Botrytis cinerea; [10]
  Avg infected area: 9.9 mm2
  Observed antifungal activity: 12.8%

## CCOCn1c(-c2ccc(Cl)cc2)c(C#N)c(Br)c1C(F)(F)F [chlorfenapyr]
Sclerotinia sclerotiorum; [11]
  Avg infected area: 86.9 mm2
  Observed antifungal activity: 23.6%
Sclerotinia sclerotiorum; [12]
  Avg infected area: 71.3 mm2
  Observed antifungal activity: 37.3%
Sclerotinia sclerotiorum; [13]
  Avg infected area: 92.3 mm2
  Observed antifungal activity: 18.8%
Sclerotinia sclerotiorum; [14]
  Avg infected area: 94.9 mm2
  Observed antifungal activity: 16.5%

## C/C=C(\C)C(=O)O[C@H]1C[C@@H](OC(C)=O)[C@@]2(C(=O)OC)CO[C@H]3[C@@H](O)[C@@](C)([C@]45O[C@@]4(C)[C@H]4C[C@@H]5O[C@@H]5OC=C[C@@]54O)[C@H]4[C@]1(CO[C@]4(O)C(=O)OC)[C@@H]32 [azadirachtin]
Sclerotinia sclerotiorum; [15]
  Avg infected area: 80.2 mm2
  Observed antifungal activity: 41.3%
Sclerotinia sclerotiorum; [16]
  Avg infected area: 82.0 mm2
  Observed antifungal activity: 40%
Sclerotinia sclerotiorum; [17]
  Avg infected area: 98.3 mm2
  Observed antifungal activity: 28.1%
Sclerotinia sclerotiorum; [18]
  Avg infected area: 123.1 mm2
  Observed antifungal activity: 9.9%

## abamectin
Colletotrichum spp.; [19]
  Avg infected area: 29.0 mm2
  Observed antifungal activity: −29.3%
Colletotrichum spp.; [20]
  Avg infected area: 30.7 mm2
  Observed antifungal activity: −37.0%

## CNC(=O)c1cc(Cl)cc(C)c1NC(=O)c1cc(Br)nn1-c1ncccc1Cl [chlorantraniliprole, 5-bromo-N-[4-chloro-2-methyl-6-(methylcarbamoyl)phenyl]-2-(3-chloropyridin-2-yl) pyrazole-3-carboxamide]
Colletotrichum spp.; [21]
  Avg infected area: 38.8 mm2
  Observed antifungal activity: 29.8%
Colletotrichum spp.; [22]
  Avg infected area: 55.6 mm2
  Observed antifungal activity: −0.7%
Colletotrichum spp.; [23]
  Avg infected area: 66.4 mm2
  Observed antifungal activity: −20.2%

## emamectin benzoate [emamection benzoate]
Colletotrichum spp.; [24]
  Avg infected area: 30.6 mm2
  Observed antifungal activity: −90.1%
Colletotrichum spp.; [25]
  Avg infected area: 16.6 mm2
  Observed antifungal activity: −3.5%
Colletotrichum spp.; [26]
  Avg infected area: 24 mm2
  Observed antifungal activity: −49.1%

## CN1COCN(Cc2cnc(Cl)s2)C1=N[N+](=O)[O-] [thiamethoxam, N-[3-[(2-chloro-1,3-thiazol-5-yl)methyl]-5-methyl-1,3,5-oxadiazinan-4-ylidene]nitramide]
Sclerotinia sclerotiorum; [27]
  Avg infected area: 250.6 mm2
  Observed antifungal activity: 2.9%
Sclerotinia sclerotiorum; [28]
  Avg infected area: 270.9 mm2
  Observed antifungal activity: −4.9%
Sclerotinia sclerotiorum; [29]
  Avg infected area: 253.2 mm2
  Observed antifungal activity: 1.9%
Sclerotinia sclerotiorum; [30]
  Avg infected area: 254.1 mm2
  Observed antifungal activity: 1.6%

## O=[N+]([O-])NC1=NCCN1Cc1ccc(Cl)nc1 [imidacloprid, N-[1-[(6-chloropyridin-3-yl)methyl]-4,5-dihydroimidazol-2-yl]nitramide]
Colletotrichum spp.; [31]
  Avg infected area: 18.5 mm2
  Observed antifungal activity: 56.3%
Colletotrichum spp.; [32]
  Avg infected area: 23.3 mm2
  Observed antifungal activity: 44.7%
Colletotrichum spp.; natamycin-insecticide 0:1 ppm, 5 days after inoculation, Table 16
  Avg infected area: 27.9 mm2
Botrytis cinerea; [33]
  Avg infected area: 16.6 mm2
  Observed antifungal activity: 43.3%
Botrytis cinerea; [34]
  Avg infected area: 35.6 mm2
  Observed antifungal activity: 27.6%
Botrytis cinerea; [35]
  Avg infected area: 53.2 mm2
  Observed antifungal activity: −8.3%
Botrytis cinerea; [36]
  Avg infected area: 32.4 mm2
  Observed antifungal activity: 34.1%

From patent US20250280827A1, “An antifungal composition comprising natamycin and at least one insecticide” (priority 2021, published 2025)
